The supplement of paper PMC10307832

Columns and labels:
Experiment in all cases: relative viability (nuclei count vs DMSO), 5 days (fraction); higher = more cells survive
201T = test system: 201T
Method in brief: (§1)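 Values are medians from duplicate plates. Each reflects relative viability, defined as the nuclei count of treated wells over that of vehicle wells. Lung cancer cell lines in 1536-well plates were pin-tool dosed one day after seeding with one drug alone or with a fixed anchor-drug dose plus five library-drug doses (not always all listed) in √10 steps, then fixed, stained and imaged at 4× after 5 days.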

BEN = test system: BEN
Method in brief: as §1

COR-L 105 = test system: COR-L 105
Method in brief: as §1

EKVX = test system: EKVX
Method in brief: as §1

EPLC-272H = test system: EPLC-272H
Method in brief: as §1

H3255 = test system: H3255
Method in brief: as §1

HCC-44 = test system: HCC-44
Method in brief: as §1

HCC-827 = test system: HCC-827
Method in brief: as §1

HOP-62 = test system: HOP-62
Method in brief: as §1

LCLC-97TM1 = test system: LCLC-97TM1
Method in brief: as §1

LOU-NH91 = test system: LOU-NH91
Method in brief: as §1

LU99A = test system: LU99A
Method in brief: as §1

NCI-H1437 = test system: NCI-H1437
Method in brief: as §1

NCI-H1666 = test system: NCI-H1666
Method in brief: as §1

NCI-H1975 = test system: NCI-H1975
Method in brief: as §1

NCI-H2085 = test system: NCI-H2085
Method in brief: as §1

NCI-H2087 = test system: NCI-H2087
Method in brief: as §1

NCI-H647 = test system: NCI-H647
Method in brief: as §1

PC-3 [JPC-3] = test system: PC-3 [JPC-3]
Method in brief: as §1

SW 1573 = test system: SW 1573
Method in brief: as §1

Work on `CC1(C)CCC(c2ccc(Cl)cc2)=C(CN2CCN(c3ccc(C(=O)NS(=O)(=O)c4ccc(N[C@H](CCN5CCOCC5)CSc5ccccc5)c(S(=O)(=O)C(F)(F)F)c4)cc3)CC2)C1` [Navitoclax] + CC(C)C[C@H](NC(=O)[C@H](Cc1ccccc1)NC(=O)c1cnccn1)B(O)O [Bortezomib] (partner 0.002 µM) yielded a relative viability (201T; first compound 0.005 µM) of 1.16, a relative viability (201T; first compound 0.01581 µM) of 1.13 and a relative viability (201T; first compound 0.05 µM) of 1. The relative viability (201T; first compound 0.1581 µM) was 1.1, the relative viability (201T; first compound 0.5 µM) was 1.1 and the relative viability (BEN; first compound 0.005 µM) was 0.826. It also gave a relative viability (BEN; first compound 0.01581 µM) of 0.807, a relative viability (BEN; first compound 0.05 µM) of 0.664 and a relative viability (BEN; first compound 0.1581 µM) of 0.789. The relative viability (BEN; first compound 0.5 µM) was 0.339, the relative viability (COR-L 105; first compound 0.005 µM) was 0.977 and the relative viability (COR-L 105; first compound 0.01581 µM) was 1.31. For the same molecule, the relative viability (COR-L 105; first compound 0.05 µM) was 0.712, the relative viability (COR-L 105; first compound 0.1581 µM) was 0.875 and the relative viability (COR-L 105; first compound 0.5 µM) was 0.584. The relative viability (EKVX; first compound 0.005 µM) was 1.01, the relative viability (EKVX; first compound 0.01581 µM) was 1.01 and the relative viability (EKVX; first compound 0.05 µM) was 0.68. For the same molecule, the relative viability (EKVX; first compound 0.1581 µM) was 1.04, the relative viability (EKVX; first compound 0.5 µM) was 0.963 and the relative viability (EPLC-272H; first compound 0.005 µM) was 0.925. It also gave a relative viability (EPLC-272H; first compound 0.1581 µM) of 0.988, a relative viability (EPLC-272H; first compound 0.5 µM) of 0.887 and a relative viability (H3255; first compound 0.005 µM) of 0.849. For the same molecule, the relative viability (H3255; first compound 0.01581 µM) was 1.09, the relative viability (H3255; first compound 0.05 µM) was 0.836 and the relative viability (H3255; first compound 0.1581 µM) was 0.692. The relative viability (H3255; first compound 0.5 µM) was 0.632, the relative viability (HCC-44; first compound 0.005 µM) was 0.859 and the relative viability (HCC-44; first compound 0.01581 µM) was 0.912. The relative viability (HCC-44; first compound 0.05 µM) was 0.859, the relative viability (HCC-44; first compound 0.1581 µM) was 0.927 and the relative viability (HCC-44; first compound 0.5 µM) was 0.882. The relative viability (HCC-827; first compound 0.005 µM) was 1.02, the relative viability (HCC-827; first compound 0.01581 µM) was 1.21 and the relative viability (HCC-827; first compound 0.05 µM) was 0.87. The relative viability (HCC-827; first compound 0.1581 µM) was 1.08, the relative viability (HCC-827; first compound 0.5 µM) was 0.999 and the relative viability (HOP-62; first compound 0.005 µM) was 0.575. The relative viability (HOP-62; first compound 0.01581 µM) was 0.818, the relative viability (HOP-62; first compound 0.05 µM) was 0.82 and the relative viability (HOP-62; first compound 0.1581 µM) was 0.85. For the same molecule, the relative viability (HOP-62; first compound 0.5 µM) was 1.1, the relative viability (LCLC-97TM1; first compound 0.005 µM) was 0.696 and the relative viability (LCLC-97TM1; first compound 0.01581 µM) was 1.06. It also gave a relative viability (LCLC-97TM1; first compound 0.05 µM) of 0.583, a relative viability (LCLC-97TM1; first compound 0.1581 µM) of 0.6 and a relative viability (LCLC-97TM1; first compound 0.5 µM) of 0.513. For the same molecule, the relative viability (LOU-NH91; first compound 0.005 µM) was 0.418, the relative viability (LOU-NH91; first compound 0.01581 µM) was 0.485 and the relative viability (LOU-NH91; first compound 0.05 µM) was 0.391. For the same molecule, the relative viability (LOU-NH91; first compound 0.1581 µM) was 0.449, the relative viability (LOU-NH91; first compound 0.5 µM) was 0.339 and the relative viability (LU99A; first compound 0.005 µM) was 1.08. The relative viability (LU99A; first compound 0.01581 µM) was 1.29, the relative viability (LU99A; first compound 0.05 µM) was 0.857 and the relative viability (LU99A; first compound 0.1581 µM) was 1.15. For the same molecule, the relative viability (LU99A; first compound 0.5 µM) was 1.32, the relative viability (NCI-H1437; first compound 0.005 µM) was 0.503 and the relative viability (NCI-H1437; first compound 0.01581 µM) was 0.589. It also gave a relative viability (NCI-H1437; first compound 0.05 µM) of 0.589, a relative viability (NCI-H1437; first compound 0.1581 µM) of 0.495 and a relative viability (NCI-H1437; first compound 0.5 µM) of 0.47. The relative viability (NCI-H1666; first compound 0.005 µM) was 0.791, the relative viability (NCI-H1666; first compound 0.01581 µM) was 0.825 and the relative viability (NCI-H1666; first compound 0.05 µM) was 0.764. It also gave a relative viability (NCI-H1666; first compound 0.1581 µM) of 0.782, a relative viability (NCI-H1666; first compound 0.5 µM) of 0.805 and a relative viability (NCI-H1975; first compound 0.005 µM) of 0.389. It also gave a relative viability (NCI-H1975; first compound 0.01581 µM) of 0.354, a relative viability (NCI-H1975; first compound 0.05 µM) of 0.381 and a relative viability (NCI-H1975; first compound 0.1581 µM) of 0.258. It also gave a relative viability (NCI-H1975; first compound 0.5 µM) of 0.255, a relative viability (NCI-H2085; first compound 0.005 µM) of 0.977 and a relative viability (NCI-H2085; first compound 0.01581 µM) of 1.09. It also gave a relative viability (NCI-H2085; first compound 0.05 µM) of 0.855, a relative viability (NCI-H2085; first compound 0.1581 µM) of 1.15 and a relative viability (NCI-H2085; first compound 0.5 µM) of 0.978. It also gave a relative viability (NCI-H2087; first compound 0.005 µM) of 0.905, a relative viability (NCI-H2087; first compound 0.01581 µM) of 0.979 and a relative viability (NCI-H2087; first compound 0.05 µM) of 0.504. It also gave a relative viability (NCI-H2087; first compound 0.1581 µM) of 0.612, a relative viability (NCI-H2087; first compound 0.5 µM) of 0.772 and a relative viability (NCI-H647; first compound 0.005 µM) of 0.686. It also gave a relative viability (NCI-H647; first compound 0.01581 µM) of 1.22, a relative viability (NCI-H647; first compound 0.05 µM) of 0.866 and a relative viability (NCI-H647; first compound 0.1581 µM) of 0.761. It also gave a relative viability (NCI-H647; first compound 0.5 µM) of 0.863, a relative viability (PC-3 [JPC-3]; first compound 0.005 µM) of 0.757 and a relative viability (PC-3 [JPC-3]; first compound 0.01581 µM) of 0.784. The relative viability (PC-3 [JPC-3]; first compound 0.05 µM) was 0.732, the relative viability (PC-3 [JPC-3]; first compound 0.1581 µM) was 0.874 and the relative viability (PC-3 [JPC-3]; first compound 0.5 µM) was 0.822. It also gave a relative viability (SW 1573; first compound 0.005 µM) of 1.04, a relative viability (SW 1573; first compound 0.01581 µM) of 1.24 and a relative viability (SW 1573; first compound 0.05 µM) of 0.895. For the same molecule, the relative viability (SW 1573; first compound 0.1581 µM) was 0.796 and the relative viability (SW 1573; first compound 0.5 µM) was 1.15.
